Measurements published in patent US20190008957A1, “COMBINATION THERAPIES INCLUDING INHIBITORS OF THE EXTRACELLULAR DOMAIN OF E-CADHERIN” (The Research Foundation for The State of New York, priority 2012, published 2019).
Where a SMILES comes first, the peptide text is derived from it. [ ]: non-standard residue; d: D form. Nle = CCCC[C@H](N)C(=O)O

Assays:
[1] = tested on: lysosome and ubiquitin-proteasome pathways; experiment: Lysosome/proteasome inhibitor rescue of anti-sEcad mAb-induced apoptosis and HER1-4 expression; type: cell-based
Method: Cellular apoptosis was quantitatively determined using the Cell Death Apoptosis Detection ELISA Plus kit (Boehringer Mannheim), which is based on the detection of DNA-histone complexes in the form of mono- and oligo-nucleosomes, according to the manufacturer's instructions. Briefly, cells were treated in the presence or absence of various concentrations of DECMA-1 or rat IgG1 for 24 to 48 h. Cells were harvested by trypsinization, counted and lysates were subjected to the ELISA. In vitro and in vivo apoptosis was further analyzed by in situ detection of fragmented DNA, using the DeadEnd Fluorometric TUNEL System (Promega), the ApopTag Peroxidase In situ Apoptosis Detection Kit (Millipore) and the human Apoptosis Array Kit (ARY009, R & D), according to the manufacturer's instructions. The ApopTag kit was performed on deparaffinized 5 μm-thick sections treated with proteinase K (20 μg/ml) at RT. For cell counting, the cells were trypsinized and counted on a haemocytometer. For tumor BrdU analyses, tissues were stained using an anti-BrdU (ab2284, abcam) antibody, as previously described (27). The proliferation of cells was monitored by a cell proliferation ELISA 5-bromo-2′-deoxyuridine (BrdU) (colorimetric) kit (Roche, Stockholm, Sweden), according to the manufacturers protocol.
Human MCF-7 and BT474 parental cells were purchased from the American Type Culture Collection (ATCC), and cultured according to ATCC recommendations. BT474-Herceptin resistant cells were a kind gift of Dr. Kute (Wake Forest University, Winston-Salem, N.C.) and grown in 10% FBS RPMI-1640 medium (ATCC). Anti-sEcad ectodomain-specific antibodies include DECMA-1 (Sigma), HECD-1 (Calbiochem), SHE78-7 (Calbiochem) and H108 (Santa Cruz Biotechnology). The IAP antibody sampler kit was purchased from Cell Signaling. ALLN proteasome and chloroquine lysosome inhibitors were obtained from Sigma.

[2] = tested on: skin (SCC12b, SCC13, PAM212 and CC4A) and the head & neck FADU cell line; experiment: Matrigel invasion of SCC cells; type: cell-based; settings: for sEcad-induced invasion: PAM212 skin SCC cells, HER inhibitors
[3] = tested on: skin (PAM212, CC4A, SCC12b, SCC13) and oropharyngeal (FADU) cells; experiment: Transwell migration of SCC cells; type: cell-based; settings: PAM212 skin SCC cells; HER inhibitors
Method: (§1) For BrdU staining, cells were incubated with 10 μM BrdU for 2 h prior to fixation and processed for immunofluorescence microscopy as previously described (Brouxhon et al., Cancer Res. 67:7654-64, 2007). For BrdU analyses, cells were counted from 6 low-power fields (×100) per section. BrdU incorporation was also analyzed by a cell proliferation ELISA 5-bromo-2′-deoxyuridine (BrdU) (colorimetric) kit (Roche, Stockholm, Sweden), according to the manufacturer's instructions. Migration and invasion of cells were measured using 8.0 μm pore BD BioCoat Control Insert 24-well plates (no. 354578) and Matrigel Invasion Chamber 24-well Plates (no. 354480), respectively (BD Bioscience). Cells were collected, washed, and 2×10^5 cells were plated in 0.4% FBS medium in the top chamber, with 0-20 μg/mL of rhEcad/Fc in the bottom chamber. After 22 h, cells on the top were removed using a cotton swab. Migrated or invaded cells on the lower surface were fixed with methanol, stained with 0.5% crystal violet, examined by bright field microscopy and photographed. Migration or invasion was quantitated by counting migrated or invaded cells in at least ten random high-power fields per insert and expressed as averages. Results are presented as fold change of the number of migrated/invaded cells to the untreated controls in triplicate experiments.

HER1, HER2, IGF-1R = experiment: Western blot of receptor phosphorylation in skin and oropharyngeal SCC cell lines; type: cell-based; settings: PAM212 cells
Method: (§2) After brief sonication, lysates were cleared by centrifugation at 4° C. […] After transfer to nitrocellulose membrane and blocking with 1% BSA, samples were probed with primary antibodies. Western blot images were captured using HP Scanjet G4050 and analyzed relative to G3PDH or actin using NIH Scion Image.
(§3) Antibodies against total HER1 and HER 4 and phosphorylated HER1-4, pPI3K, pAkt, pmTOR, p4E-BP1, pRaptor and pp70S6K obtained from Cell Signaling Technologies. Monoclonal antibodies to HER3 and HER4 were obtained from Thermo Scientific. Polyclonal antibody to the extracellular domain of E-cadherin and monoclonal antibody to α-actin were obtained from Santa Cruz Biotechnology. Monoclonal antibody to the extracellular domain of E-cadherin (DECMA-1) and to His Tag were obtained from Sigma and Abcam, respectively. Monoclonal antibody to G3PDH, ubiquitin and rat IgG1 were obtained from Ambion, Zymed and Southern Biotechnology, respectively.

[4] = tested on: oropharyngeal FADU and skin SCC (PAM212, CC4A, SCC13 and SCC12b) cell lines; experiment: Proliferation in oropharyngeal and skin SCC cell lines; type: cell-based; settings: PAM212 skin SCC cells; HER inhibitors
Method: as §1

[5] = tested on: MCF-7, SKBR3 and MDA-MB-231 breast cancer cell lines; experiment: BrdU proliferation in breast cancer cell lines; type: cell-based, human; settings: breast cancer cells; Canertinib 1 μM, Lapatinib 5 μM, Gefitinib 5 μM
Method: as §1

[6] = tested on: MEK1/2, ERK1/2, PI3K, Akt, mTOR, p70S6K, 4EBP1; experiment: Western blot of downstream MAPK-PI3K/Akt/mTOR signaling in SCC cell lines; type: cell-based; settings: PAM212 cells
Method: as §2, §3

[7] = tested on: MDA-MB-231 and MCF-7 breast cancer cells; experiment: Matrigel invasion of breast cancer cells; type: cell-based, human; settings: MDA-MB-231 cell line; compared to untreated controls
Method: as §1, with “After 22 h, cells on the top were removed using a cotton swab.” left out

[8] = tested on: breast (MCF-7, SKBR3) cells; experiment: Transwell migration of breast cancer cells; type: cell-based, human; settings: breast cancer cells (MCF-7)
Method: as §1, with “After 22 h, cells on the top were removed using a cotton swab.” left out

Compound | HER1-4 expression in anti-sEcad mAb treated cells in presence of inhibitor [1] | anti-sEcad mAb-induced apoptosis in presence of inhibitor [1] | sEcad-induced invasion [2] | sEcad-induced migration [3] | sEcad-induced proliferation [4] | basal and sEcad-induced BrdU incorporation [5] | other results
CCCC[C@@H](C=O)NC(=O)[C@H](CC(C)C)NC(=O)[C@H](CC(C)C)NC(C)=O [ALLN] (Ac-Leu-Leu-[Nle]-aldehyde) | rescue of HER1-4 expression | inhibited | – | – | – | – | –
C=CC(=O)Nc1cc2c(Nc3ccc(F)c(Cl)c3)ncnc2cc1OCCCN1CCOCC1 [Canertinib] | – | – | effectively inhibited sEcad-induced proliferation, migration and invasion | effectively inhibited sEcad-induced proliferation, migration and invasion | effectively inhibited sEcad-induced proliferation, migration and invasion | significantly reduced both basal and sEcad-induced BrdU incorporation | sEcad-induced HER1 phosphorylation (HER1, HER2, IGF-1R): completely abrogated; sEcad-induced HER2 phosphorylation (pHER2) (HER1, HER2, IGF-1R): completely abrogated; phospho-IGF-1R levels (HER1, HER2, IGF-1R; in the presence of sEcad, compared to corresponding controls): did not alter
CCN(CC)CCCC(C)Nc1ccnc2cc(Cl)ccc12 (stereo not drawn) [Chloroquine] | rescued HER1-4 membrane expression | prevented anti-sEcad mAb-induced apoptosis at low doses | – | – | – | – | –
CNC(=O)[C@H](Cc1c[nH]c2ccccc12)NC(=O)[C@@H](CC(=O)NO)CC(C)C [GM6001, Ilomastat] | – | – | – | – | – | – | sEcad-stimulated invasion ([2]; PAM212 cells treated with 20 μg/mL rmEcad/Fc): completely blocked
COc1cc2ncnc(Nc3ccc(F)c(Cl)c3)c2cc1OCCCN1CCOCC1 [Gefitinib] | – | – | effectively inhibited sEcad-induced proliferation, migration and invasion | effectively inhibited sEcad-induced proliferation, migration and invasion | effectively inhibited sEcad-induced proliferation, migration and invasion | significantly reduced both basal and sEcad-induced BrdU incorporation | sEcad-induced phosphorylation of 4EBP1 [6]: only minimal effects; sEcad-induced phosphorylation of ERK1/2, Akt and p70S6K [6]: decreased; sEcad-induced phosphorylation of PI3K [6]: decreased; basal and sEcad-induced invasion [7]: significantly reduced
FC(F)(F)c1ccc(/C=C/c2nc(COc3ccc(CCCCn4ccnn4)cc3)co2)cc1 [Mubritinib] | – | – | – | – | – | – | basal and rhEcad/Fc-mediated migration [8]: only blocked sECad-induced MCF-7 migration
